Assay results from ChEMBL document CHEMBL1150595, “Isolation and structure elucidation of radical scavengers from Thymus vulgaris leaves” (J Nat Prod, 2002).
Active and inactive are the calls of the source. No cut-off for these calls is given here.

What was measured:
[1] = tested on: Radical scavenging activity; experiment: Antioxidant activity assessed as DPPH radical scavenging activity at drug-DPPH molar ratio of 1:2 after 15 mins; type: functional
[2] = tested on: Radical scavenging activity; experiment: Antioxidant activity assessed as DPPH radical scavenging activity after 3 mins; type: functional
[3] = tested on: Radical scavenging activity; experiment: Antioxidant activity assessed as DPPH radical scavenging activity after 1 min; type: functional
[4] = ABTS radical scavenging activity assessed as Trolox equivalent antioxidant capacity after 1 min; type: physicochemical
[5] = ABTS radical scavenging activity assessed as Trolox equivalent antioxidant capacity after 6 mins; type: physicochemical; conditions: 0.1 h

Compound | inhibition [1] [%] | Activity [2] | inhibition [3] [%] | Ratio [4] | Ratio [5]
O=C(/C=C/c1ccc(O)c(O/C(=C\c2ccc(O)c(O)c2)C(=O)O)c1)O[C@H](Cc1ccc(O)c(O)c1)C(=O)O | 96 | Active | 70 | 0.58 | 0.69
O=C(/C=C/c1ccc(O)c(O)c1)O[C@H](Cc1ccc(O)c(O)c1)C(=O)O [ROSMARINIC ACID] | 95 | – | 43 | 1.5 | 1.54
